The text below walks through data of PubChem BioAssay (NCI).

Among the test systems are SK-MEL-5 melanoma; HCT-116 colon; LOX IMVI melanoma; OVCAR-3 ovarian; MALME-3M melanoma; BT-549 breast; HOP-62 NSCLC; SF-268 CNS; NCI-H522 lung; NCI-H460 lung.
Experiment in all cases: DTP human tumour cell line panel, 48 h

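All cell lines were grown in 96-well plates and treated with compound for 48 hours. GI50 = concentration required for 50% inhibition of growth. Definition used: TGI = concentration required for complete inhibition of growth.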 Bounds are passed on as bounds.

What is called GI50 is the concentration at which growth is held to half of that of the control. What is called TGI is the concentration at which net growth stops. Read a high TGI as lower sensitivity of the cells.

Consider `Oc1cccc(-c2nc(-c3ccccc3)[nH]c2-c2ccncc2)c1`, for which the GI50 with SK-MEL-5 melanoma is 3.59 µM; in the assay with HCT-116 colon, 9.91 µM; in the assay with LOX IMVI melanoma, 8.82 µM; in the assay with OVCAR-3 ovarian it was 18.6 µM; in the assay on MALME-3M melanoma, 0.719 µM; in the assay with BT-549 breast it was over 25 µM. In addition, the GI50 was 16.8 µM in the assay with HOP-62 NSCLC, 24.3 µM with SF-268 CNS, 11.8 µM in the assay with NCI-H522 lung and 11.6 µM in the assay with NCI-H460 lung. Besides, the total growth inhibition concentration (TGI) in the assay with SK-MEL-5 melanoma is 14.7 µM; in the assay on HCT-116 colon, over 25 µM; with LOX IMVI melanoma, over 25 µM; in the assay on OVCAR-3 ovarian, over 25 µM; with MALME-3M melanoma, 8.01 µM; in the assay with BT-549 breast, over 25 µM. Besides, the TGI in the assay with HOP-62 NSCLC, in the assay on SF-268 CNS, with NCI-H522 lung and with NCI-H460 lung was over 25 µM in each case.

Turning to `Fc1ccc(C2C3CCOc4c(ccc5ccccc45)C3=NN2c2ccccc2)cc1` (centres undefined), the GI50 was 71.4 µM in the assay with SK-MEL-5 melanoma; over 86.2 µM with HCT-116 colon; 88.4 µM in the assay on LOX IMVI melanoma; 99.6 µM in the assay on OVCAR-3 ovarian; over 38.7 µM in the assay with MALME-3M melanoma; over 100 µM in the assay on BT-549 breast. Besides, the GI50 in the assay with HOP-62 NSCLC was over 100 µM; with SF-268 CNS, over 77.9 µM; with NCI-H522 lung, over 100 µM; with NCI-H460 lung, 37.1 µM. The TGI in the assay with SK-MEL-5 melanoma, in the assay with HCT-116 colon, with LOX IMVI melanoma, in the assay with OVCAR-3 ovarian, in the assay on MALME-3M melanoma and in the assay on BT-549 breast was over 100 µM throughout. In addition, the TGI in the assay with HOP-62 NSCLC, in the assay on SF-268 CNS, with NCI-H522 lung and in the assay on NCI-H460 lung was over 100 µM throughout.

As to `Cc1cn2c(/C=C3/C(=O)Nc4ccc(Cl)cc43)c(C)nc2s1`, the concentration for 50% growth inhibition (GI50) is 0.125 µM with SK-MEL-5 melanoma; under 0.0238 µM with HCT-116 colon; 0.0706 µM in the assay with LOX IMVI melanoma; 0.564 µM in the assay with OVCAR-3 ovarian; 1.22 µM in the assay with MALME-3M melanoma; 5.94 µM with BT-549 breast. For the same compound, the GI50 is 0.214 µM in the assay with HOP-62 NSCLC, 12.5 µM with SF-268 CNS, 1.01 µM with NCI-H522 lung and 1.04 µM in the assay with NCI-H460 lung. Besides, the TGI in the assay on SK-MEL-5 melanoma turned out to be 14.4 µM; with HCT-116 colon it was 25.3 µM; in the assay with LOX IMVI melanoma it was 54.5 µM; with OVCAR-3 ovarian it was 5.28 µM; in the assay with BT-549 breast, 97.1 µM; in the assay on HOP-62 NSCLC it was 18.3 µM. In addition, the total growth inhibition concentration (TGI) was over 100 µM in the assay with SF-268 CNS, over 100 µM in the assay with NCI-H522 lung and over 59.4 µM in the assay on NCI-H460 lung.

`CNCCN(C)Cc1cn[nH]c1-c1ccc(OC2CC(OCCC3CCOCC3)C2)cc1` (centres undefined): the GI50 is 34 µM in the assay on SK-MEL-5 melanoma; over 67.9 µM with HCT-116 colon; 60.1 µM in the assay with LOX IMVI melanoma; over 80 µM in the assay with OVCAR-3 ovarian; 28.4 µM with MALME-3M melanoma; 54.2 µM in the assay on BT-549 breast. For the same compound, the GI50 was 99.1 µM with HOP-62 NSCLC, over 100 µM with SF-268 CNS, over 100 µM in the assay with NCI-H522 lung and 97.9 µM in the assay on NCI-H460 lung. The TGI in the assay with SK-MEL-5 melanoma, in the assay on HCT-116 colon, with LOX IMVI melanoma, with OVCAR-3 ovarian, in the assay on MALME-3M melanoma and in the assay with BT-549 breast was over 100 µM in each case. Also, the TGI in the assay on HOP-62 NSCLC, in the assay with SF-268 CNS, in the assay with NCI-H522 lung and with NCI-H460 lung was over 100 µM throughout.

For the compound `O=C(c1ccco1)c1c(C(F)(F)F)n([O-])c2ccc(F)cc2[n+]1=O`, the GI50 in the assay on SK-MEL-5 melanoma is 1.84 µM; in the assay on HCT-116 colon it was 0.824 µM; with LOX IMVI melanoma it was 0.785 µM; in the assay on OVCAR-3 ovarian it was 0.757 µM; in the assay with MALME-3M melanoma, 1.09 µM; with BT-549 breast it was 0.996 µM. The GI50 is 3 µM in the assay with HOP-62 NSCLC, 1.24 µM in the assay on SF-268 CNS, 1.7 µM in the assay with NCI-H522 lung and 0.926 µM in the assay on NCI-H460 lung. For the same compound, the TGI in the assay on SK-MEL-5 melanoma turned out to be 5.88 µM; with HCT-116 colon, 2.41 µM; in the assay on LOX IMVI melanoma it was 2.24 µM; in the assay on OVCAR-3 ovarian, 2.24 µM; with MALME-3M melanoma, 3.21 µM; with BT-549 breast, 2.98 µM. Moreover, the concentration for total growth inhibition (TGI) stood at 13.7 µM in the assay with HOP-62 NSCLC, 2.85 µM in the assay on SF-268 CNS, 3.44 µM in the assay with NCI-H522 lung and 11.7 µM with NCI-H460 lung.

In the case of `Cc1cc2c(cc1Cl)SC(C(=O)c1ccc(Cl)c(Cl)c1)NS2(=O)=O` (centres undefined), the GI50 in the assay with SK-MEL-5 melanoma is 42.3 µM; in the assay with HCT-116 colon, 21.9 µM; with LOX IMVI melanoma it was 22.6 µM; with OVCAR-3 ovarian, 40.7 µM; with MALME-3M melanoma, 45.3 µM; in the assay with BT-549 breast, 29.8 µM. The GI50 in the assay with HOP-62 NSCLC is 39.3 µM; in the assay on SF-268 CNS, 33.6 µM; in the assay with NCI-H522 lung, 28.9 µM; in the assay with NCI-H460 lung, 23.5 µM. The concentration for total growth inhibition (TGI) with SK-MEL-5 melanoma was over 100 µM; with HCT-116 colon, 40.8 µM; in the assay with LOX IMVI melanoma it was 48.7 µM; with OVCAR-3 ovarian it was over 100 µM; in the assay on MALME-3M melanoma, over 100 µM; in the assay with BT-549 breast it was 56.5 µM. Moreover, the total growth inhibition concentration (TGI) was over 100 µM with HOP-62 NSCLC, 88.6 µM with SF-268 CNS, 74.4 µM in the assay on NCI-H522 lung and 50.7 µM with NCI-H460 lung.

Consider `CC12CC(=O)C3C(CCC4=CC(=O)CCC43C)C1CC=C2CC(=O)O` (centres undefined), for which the total growth inhibition concentration (TGI) in the assay on SK-MEL-5 melanoma, in the assay on HCT-116 colon, in the assay on LOX IMVI melanoma, with OVCAR-3 ovarian, in the assay with MALME-3M melanoma and in the assay with BT-549 breast was over 100 µM in each case. In addition, the TGI in the assay with HOP-62 NSCLC, in the assay with SF-268 CNS, in the assay with NCI-H522 lung and with NCI-H460 lung was over 100 µM each time.

Take `O=C1/C(=C/c2ccccc2[N+](=O)[O-])COc2ccc(O)c(O)c21`: the GI50 in the assay with SK-MEL-5 melanoma is 1.53 µM; in the assay with HCT-116 colon, 0.297 µM; in the assay on LOX IMVI melanoma, 0.307 µM; with OVCAR-3 ovarian, 0.295 µM; with MALME-3M melanoma it was 0.866 µM; in the assay on BT-549 breast, 0.882 µM. Moreover, the GI50 in the assay with HOP-62 NSCLC was 3.55 µM; with SF-268 CNS, 1.18 µM; with NCI-H522 lung, 0.208 µM; in the assay on NCI-H460 lung, 1.38 µM. The TGI is 3.02 µM in the assay on SK-MEL-5 melanoma; 1.1 µM in the assay with HCT-116 colon; 1.3 µM in the assay with LOX IMVI melanoma; 0.976 µM with OVCAR-3 ovarian; 3 µM in the assay on MALME-3M melanoma; 4.02 µM in the assay with BT-549 breast. For the same compound, the total growth inhibition concentration (TGI) in the assay with HOP-62 NSCLC amounted to 14.5 µM; in the assay with SF-268 CNS, 4.58 µM; with NCI-H522 lung it was 0.509 µM; with NCI-H460 lung, 4.94 µM.
